The values below are quoted from earlier work in US20250387523A1, “COMBINATION THERAPY OF RADIONUCLIDE COMPLEX” (Novartis AG, priority 2021, published 2025).

Where two headings read alike, the source gives them in different places.

The subject of one data set is recurrent glioblastoma. The following applies: randomized 2:1.
The subject of data set [1] is newly diagnosed glioblastoma. The following applies: newly diagnosed patients; temozolomide added to radiation therapy (radiotherapy alone 12.1 months).
Data set [2] relates to newly diagnosed glioblastoma.

Regarding `O=NN(CCCl)C(=O)NC1CCCCC1` [lomustine], in the data set on recurrent glioblastoma, the “median OS” value is reported as 8.6 months and the “median PFS” value is listed as 1.5 months.

Turning to `Cn1nnc2c(C(N)=O)ncn2c1=O` [temozolomide, 3,4-Dihydro-3-methyl-4-oxoimidazo[5,1-d][1,2,3,5]tetrazine-8-carboxamide], the median overall survival in data set [1] is reported as 14.6 months. Moreover, the median survival is 21.7 months in data set [2] (patients with a methylated MGMT promoter, temozolomide and radiotherapy (radiotherapy only 15.3 months, P=0.007)); 12.7 months in data set [2] (tumors not methylated at the MGMT promoter, temozolomide plus radiotherapy (radiotherapy only 11.8 months, P=0.06)). Besides, the “longer median survival with MGMT promoter methylation” value with glioblastoma (glioblastoma patients treated with temozolomide, MGMT promoter methylation present vs lacking) was “approximately 50%”. For the same molecule, the clinical benefit entry in the data set with glioblastoma (patients that lack MGMT promoter methylation) was “no clinical benefit”.
